Data published in patent US20100137260A1, “COMPOUND FOR INHIBITING TRPV3 FUNCTION AND USE THEREOF” (Korea University Industry and Academic Collaboration …, priority 2008, published 2010).

Test system: HaCat skin cells
Assay: Artificial wound recovery (cell migration and proliferation) in HaCat cells (FIG. 3)
Type: cell-based
Conditions: 12 hours; for Migration and proliferation of HaCaT cells in medium containing camphor: medium containing 4 mM camphor, IPP 10 μM, FPP 1 μM, GPP 10 μM
Method: The present inventors drew lines 1 mm deep on the well fully filled with the cells to make artificial wound. The wounded cells were treated with IPP (10 μM), FPP (1 μM) and GPP (10 μM: geranyl pyrophosphate, Biomol, USA) respectively and incubated in a CO2 incubator for 12 hours. The control group was not-treated. The width of recovered wound was measured under microscope and compared with that at the beginning, which was presented as wound recovery rate. All the experiments were performed on DMEM/FBS. Floating cells, which means dead cells, after making wound, were eliminated by using PBS to eliminate variables caused by dead cells. The cells were observed under microscope (×40), and distance was measured by using image analysis program (Meta-flour 7.1 Molecular Devices, USA).

Row | Compound | Migration and proliferation of HaCat skin cells, compound alone (FPP alone (1 μM)) | Migration and proliferation of HaCaT cells in medium containing camphor
1 | CC(C)=CCC/C(C)=C/CC/C(C)=C/COP(=O)(O)OP(=O)(O)O [FPP] | confirmed the inhibitory effect | inhibitory effect was not observed
2 | CC(C)=CCC/C(C)=C/COP(=O)(O)OP(=O)(O)O [GPP, geranyl pyrophosphate] | – | inhibitory effect was not observed
